According to patent US10618918B2, “Substituted boronic acids as antimicrobials” (priority 2015, dated 2020):
pKi: −log10 of the molar value. Where two headings read alike, the source gives them in different places.

What was measured:
[1] = tested on: EC1010 CMY-6; assay: Aztreonam potentiation (MPC@4), strain EC1010 CMY-6; conditions: minimum BLI concentration inhibiting growth with aztreonam 4 μg/mL; tested up to 40 μg/mL
[2] = tested on: ECL1002; assay: Aztreonam potentiation (MPC@4), strain ECL1002; conditions: minimum BLI concentration inhibiting growth with aztreonam 4 μg/mL; tested up to 40 μg/mL
[3] = tested on: KP1004 KPC-2; assay: Biapenem potentiation (MPC@1), strain KP1004 KPC-2; assay type: cell-based; conditions: minimum BLI concentration inhibiting growth with biapenem 1 μg/mL; tested up to 40 μg/mL
Procedure: (§1) Biapenem was present in the test medium at 1 μg/mL. […] Table 3 summarizes the BLI potency of biapenem potentiation (MPC@1) for two strains overexpressing class A (KPC) and class D (OXA-48) carbapenemases. Biapenem MIC for each strain is also shown.

[4] = tested on: KP1010 SHV-12; assay: Aztreonam potentiation (MPC@4), strain KP1010 SHV-12; conditions: minimum BLI concentration inhibiting growth with aztreonam 4 μg/mL; tested up to 40 μg/mL
[5] = tested on: AB1054 OXA-23; assay: Meropenem potentiation (MPC@8), strain AB1054 OXA-23; assay type: cell-based, Acinetobacter baumannii; conditions: minimum BLI concentration inhibiting growth with meropenem 8 μg/mL; tested up to 20 μg/mL
[6] = tested on: KP1086 OXA-48; assay: Biapenem potentiation (MPC@1), strain KP1086 OXA-48; assay type: cell-based; conditions: minimum BLI concentration inhibiting growth with biapenem 1 μg/mL; tested up to 40 μg/mL
Procedure: as §1

[7] = tested on: KP1009 CTX-M-15; assay: Aztreonam potentiation (MPC@4), strain KP1009 CTX-M-15; conditions: minimum BLI concentration inhibiting growth with aztreonam 4 μg/mL; tested up to 40 μg/mL
[8] = target: purified class A, C and D enzymes (β-lactamases) (Escherichia coli, UniProt Q9L5C7); assay: biochemical; assay type: biochemical; conditions: purified CTX-M-14; nitrocefin (NCF) as reporter substrate
[9] = target: T1, purified class A, C and D enzymes (β-lactamases) (Pseudomonas aeruginosa, UniProt P24735); assay: biochemical; assay type: biochemical
T1 construct: rows headed: Ki (Pa-AmpC, NCF), uM; other: purified Pa-AmpC; nitrocefin (NCF) as reporter substrate

[10] = target: purified class A, C and D enzymes (β-lactamases) (Enterobacter cloacae, UniProt P05364); assay: biochemical; assay type: biochemical
[11] = target: T2, purified class A, C and D enzymes (β-lactamases) (Acinetobacter baumannii, UniProt Q9L4P2); assay: biochemical; assay type: biochemical; conditions: purified OXA-23; nitrocefin (NCF) as reporter substrate
T2 construct: rows headed: Ki (OXA-23, NCF), uM; other: purified OXA-23; nitrocefin (NCF) as reporter substrate

[12] = target: purified class A, C and D enzymes (β-lactamases) (Klebsiella pneumoniae, UniProt Q6XEC0); assay: biochemical; assay type: biochemical; conditions: purified OXA-48; nitrocefin (NCF) as reporter substrate
[13] = target: purified class A, C and D enzymes (β-lactamases) (Klebsiella pneumoniae, UniProt Q9F663); assay: biochemical; assay type: biochemical; conditions: purified KPC-2; nitrocefin (NCF) as reporter substrate
[14] = target: T3, purified class A, C and D enzymes (β-lactamases) (UniProt P0AD64, L31Q/G234S/E235K, species not given); assay: biochemical; assay type: biochemical
T3 construct: Ki (SHV-12, NCF), uM; other: purified SHV-12; nitrocefin (NCF) as reporter substrate
T3 sequence (P0AD64 1-286 L31Q/G234S/E235K): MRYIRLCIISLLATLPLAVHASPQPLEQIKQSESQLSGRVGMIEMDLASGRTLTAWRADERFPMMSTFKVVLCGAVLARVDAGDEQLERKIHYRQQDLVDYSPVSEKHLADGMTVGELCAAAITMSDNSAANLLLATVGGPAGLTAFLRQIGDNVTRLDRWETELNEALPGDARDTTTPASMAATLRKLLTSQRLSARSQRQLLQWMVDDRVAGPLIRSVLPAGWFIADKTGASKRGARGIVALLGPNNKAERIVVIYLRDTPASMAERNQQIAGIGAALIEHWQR

[15] = tested on: ec308 SHV-5; assay: Aztreonam potentiation (MPC@4), strain ec308 SHV-5; conditions: minimum BLI concentration inhibiting growth with aztreonam 4 μg/mL; tested up to 40 μg/mL
[16] = tested on: KP1004 KPC-2; assay: Aztreonam potentiation (MPC@4), strain KP1004 KPC-2; conditions: minimum BLI concentration inhibiting growth with aztreonam 4 μg/mL; tested up to 40 μg/mL
[17] = tested on: ec302 TEM-10; assay: Aztreonam potentiation (MPC@4), strain ec302 TEM-10; conditions: minimum BLI concentration inhibiting growth with aztreonam 4 μg/mL; tested up to 40 μg/mL
[18] = tested on: KP1005 CTX-M-14; assay: Tigemonam potentiation (MPC@4), strain KP1005 CTX-M-14; conditions: minimum BLI concentration inhibiting growth with tigemonam 4 μg/mL; tested up to 40 μg/mL
[19] = tested on: AB1053 OXA-72; assay: Meropenem potentiation (MPC@8), strain AB1053 OXA-72; assay type: cell-based, Acinetobacter baumannii; conditions: minimum BLI concentration inhibiting growth with meropenem 8 μg/mL; tested up to 20 μg/mL
[20] = purified Pa-AmpC, nitrocefin (NCF) as reporter substrate, read-out: Ki (Pa-AmpC, NCF)
[21] = purified P99, nitrocefin (NCF) as reporter substrate

Chain of purified class A, C and D enzymes (β-lactamases) (Enterobacter cloacae, UniProt P05364) (P05364 21-381): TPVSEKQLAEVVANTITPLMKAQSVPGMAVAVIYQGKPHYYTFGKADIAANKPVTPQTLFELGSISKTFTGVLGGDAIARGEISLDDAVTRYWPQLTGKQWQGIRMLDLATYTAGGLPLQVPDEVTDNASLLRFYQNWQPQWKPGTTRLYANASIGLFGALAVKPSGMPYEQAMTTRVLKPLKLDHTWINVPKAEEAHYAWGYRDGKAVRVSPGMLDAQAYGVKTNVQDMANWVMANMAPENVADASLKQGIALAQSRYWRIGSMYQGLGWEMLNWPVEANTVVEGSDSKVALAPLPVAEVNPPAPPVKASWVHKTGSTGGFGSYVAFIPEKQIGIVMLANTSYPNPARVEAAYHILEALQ
Chain of purified class A, C and D enzymes (β-lactamases) (Escherichia coli, UniProt Q9L5C7) (Q9L5C7 entry or part of it): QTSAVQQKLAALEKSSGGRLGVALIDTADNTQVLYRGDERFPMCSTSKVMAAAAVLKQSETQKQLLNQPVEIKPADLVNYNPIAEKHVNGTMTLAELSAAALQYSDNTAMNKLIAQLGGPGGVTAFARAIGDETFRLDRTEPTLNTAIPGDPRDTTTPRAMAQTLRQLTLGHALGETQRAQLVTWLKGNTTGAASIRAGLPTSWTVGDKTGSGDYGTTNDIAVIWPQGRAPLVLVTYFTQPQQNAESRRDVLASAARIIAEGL
T1 sequence (P24735 whole entry): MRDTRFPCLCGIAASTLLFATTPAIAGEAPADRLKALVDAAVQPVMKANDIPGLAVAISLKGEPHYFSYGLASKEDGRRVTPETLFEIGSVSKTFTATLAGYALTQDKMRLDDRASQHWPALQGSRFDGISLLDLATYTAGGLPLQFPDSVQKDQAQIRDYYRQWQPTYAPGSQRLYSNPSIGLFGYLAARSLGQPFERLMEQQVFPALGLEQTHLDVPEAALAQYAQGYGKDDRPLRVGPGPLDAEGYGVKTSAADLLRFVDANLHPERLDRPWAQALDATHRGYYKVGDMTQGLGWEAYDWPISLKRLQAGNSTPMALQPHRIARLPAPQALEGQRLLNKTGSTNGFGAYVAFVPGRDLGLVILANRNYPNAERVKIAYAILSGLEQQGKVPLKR
T2 sequence (Q9L4P2 whole entry): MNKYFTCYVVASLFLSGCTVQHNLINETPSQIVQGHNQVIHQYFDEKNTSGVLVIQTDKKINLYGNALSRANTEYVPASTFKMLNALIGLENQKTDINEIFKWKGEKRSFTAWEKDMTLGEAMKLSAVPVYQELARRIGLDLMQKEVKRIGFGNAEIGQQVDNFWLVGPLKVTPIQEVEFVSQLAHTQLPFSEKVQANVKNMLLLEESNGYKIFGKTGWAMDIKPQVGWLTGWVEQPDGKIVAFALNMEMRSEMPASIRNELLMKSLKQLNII

SMILES	AZT MPC4 CMY-6 EC1010 [1]	AZT MPC4 ECL1002 [2]	BPM MPC1 KP1004 KPC-2 [3]	AZT MPC4 SHV-12 KP1010 [4]	MPM MPC8 AB1054 OXA-23 [5]	BPM MPC1 OXA-48 KP1086 [6]	AZT MPC4 CTX-M-15 KP1009 [7]	Ki (CTX-M-14, NCF), uM [8]	pKi [9, 20]	Ki (P99, NCF), uM [10, 21]	pKi [11]	Ki (OXA-48, NCF), uM [12]	Ki (KPC-2, NCF), uM [13]	AZT MPC4 SHV-5 ec308 [15]	AZT MPC4 KPC-2 KP1004 [16]	AZT MPC4 TEM-10 ec302 [17]	TIG MPC4 CTX-M-14 KP1005 [18]	MPM MPC8 AB1053 OXA-72 [19]	other results
C[C@H]1Cc2cccc(C(=O)O)c2O[B-]1(O)O [Compound 9, Disodium; (3S)-4,4-dihydroxy-3-methy-5-oxa-4-boranuidabicyclo[4.4.0]deca-1(6),7,9-triene-7-carboxylate]	Y (Y = 5 μg/mL < MPC@4 ≤ 20 μg/mL)	Y (Y = 5 μg/mL < MPC@4 ≤ 20 μg/mL)	X (X = MPC@1 ≤ 5 μg/mL)	Y (Y = 5 μg/mL < MPC@4 ≤ 20 μg/mL)	Z (Z = MPC@1 > 20 μg/mL)	X (X = MPC@1 ≤ 5 μg/mL)	Z (Z = MPC@4 > 20 μg/mL)	X (X = Ki ≤ 0.1 μM)	> 7.00	X (X = Ki ≤ 0.1 μM)	6.00 to 7.00	X (X = Ki ≤ 0.1 μM)	X (X = Ki ≤ 0.1 μM)	Y (Y = 5 μg/mL < MPC@4 ≤ 20 μg/mL)	X (X = MPC@4 ≤ 5 μg/mL)	Z (Z = MPC@4 > 20 μg/mL)	Z (Z = MPC@4 > 20 μg/mL)	Z (Z = MPC@1 > 20 μg/mL)	pKi ([14]; purified SHV-12; nitrocefin (NCF) as reporter substrate; read-out: Ki (SHV-12, NCF)): 6.00 to 7.00
C[C@@H]1Cc2cccc(C(=O)[O-])c2O[B-]1(O)O.[Na+].[Na+] [Compound 10, Disodium; (3R)-4,4-dihydroxy-3-methyl-5-oxa-4-boranuidabicyclo[4.4.0]deca-1(6),7,9-triene-7-carboxylate]	Z (Z = MPC@4 > 20 μg/mL)	Z (Z = MPC@4 > 20 μg/mL)	X (X = MPC@1 ≤ 5 μg/mL)	Y (Y = 5 μg/mL < MPC@4 ≤ 20 μg/mL)	Z (Z = MPC@1 > 20 μg/mL)	Y (Y = 5 μg/mL < MPC@1 ≤ 20 μg/mL)	Z (Z = MPC@4 > 20 μg/mL)	X (X = Ki ≤ 0.1 μM)	–	–	< 6.00	X (X = Ki ≤ 0.1 μM)	X (X = Ki ≤ 0.1 μM)	Z (Z = MPC@4 > 20 μg/mL)	Y (Y = 5 μg/mL < MPC@4 ≤ 20 μg/mL)	Z (Z = MPC@4 > 20 μg/mL)	Z (Z = MPC@4 > 20 μg/mL)	Z (Z = MPC@1 > 20 μg/mL)	pKi [9]: > 7.00; Ki (P99, NCF), uM [10]: Y (key: X = Ki ≤ 0.1 μM; Y = 0.1 μM < Ki ≤ 1 μM; Z = Ki > 1 μM); pKi ([14]; read-out: Ki (SHV-12, NCF); purified SHV-12; nitrocefin (NCF) as reporter substrate): 6.00 to 7.00
O=C(O)c1c(CNc2nncs2)ccc2c1OB(O)CC2 [Compound 64, 2-Hydroxy-7-[(1,3,4-thiadiazol-2-ylamino)methyl]-3,4-dihydro-1,2-benzoxaborinine-8-carboxylic acid]	X (X = MPC@4 ≤ 5 μg/mL)	X (X = MPC@4 ≤ 5 μg/mL)	X (X = MPC@1 ≤ 5 μg/mL)	X (X = MPC@4 ≤ 5 μg/mL)	Y (Y = 5 μg/mL < MPC@1 ≤ 20 μg/mL)	Y (Y = 5 μg/mL < MPC@1 ≤ 20 μg/mL)	X (X = MPC@4 ≤ 5 μg/mL)	X (X = Ki ≤ 0.1 μM)	> 7.00	X (X = Ki ≤ 0.1 μM)	> 7.00	X (X = Ki ≤ 0.1 μM)	X (X = Ki ≤ 0.1 μM)	X (X = MPC@4 ≤ 5 μg/mL)	X (X = MPC@4 ≤ 5 μg/mL)	X (X = MPC@4 ≤ 5 μg/mL)	Y (Y = 5 μg/mL < MPC@4 ≤ 20 μg/mL)	Y (Y = 5 μg/mL < MPC@1 ≤ 20 μg/mL)	–
